# From patent US6548540B2, “Method of treating cancer using dithiocarbamate derivatives” (Charlotte-Mecklenburg Hospital Authority, priority 1998, dated 2003)
# Legend:
# Assay type in all cases: cell-based, human
# M1619 melanoma cells = experiment: MTT proliferation assay, M1619 melanoma; settings: CuSO4 supplementation of medium without disulfiram
# Method: Human malignant cell lines were obtained from American Type Tissue Culture Collection (Rockville, Md.). Melanoma cells lines CRL 1585 and 1619 were cultured in RPMI 1640 (GIBCO-BRL, Life Technologies, Grand Island, N.Y.) with 10% FBS and passed with nonenzymatic Cell Dissociation Solution® (Sigma). The prostate adenocarcinoma cell line CRL 1435 (PC-3) was also cultured in RPMI 1640 with 10% FBS but passed with 0.05% trypsin and 0.53 mM EDTA. The squamous lung carcinoma NCI-H520 and the adenosquamous lung carcinoma NCI-H596 cell lines were grown in RPMI 1640 supplemented with 10% FBS, 10 mM HEPES and 1.0 mM sodium pyruvate and passed with trypsin/EDTA. The small cell lung carcinoma NCI-H82 was cultured as a suspension in RPMI 1640 with 10% FBS. All of the above were grown in a 37° C. humidified environment containing 5% CO2/air. The breast carcinoma cell line MDA-MB-453 was grown in a 37° C. humidified environment with free gas exchange with atmospheric air using Leibovitz's L-15 medium with 2 mM L-glutamine and 10% FBS and was passed with trypsin/EDTA.
# The effect of disulfiram (0.15 to 5.0 μM), diethyldithiocarbamate (DDC, 1.0 μM) or PDTC (0.625 to 5.0 μM) on proliferation of malignant cell lines was studied in cultures stimulated with 10% FBS. Cell numbers were quantitated 24-72 hours later. In some experiments disulfiram or PDTC were added immediately after cells were plated. In other experiments, cells were plated and allowed to grow for 24-72 hours before fresh media with disulfiram or PDTC was added, and cell numbers were assayed 24-72 hours later.
# Finally, a number of dithiocarbamate effects on cells have been attributed to increasing the intracellular levels of copper ions. To further probe the role of copper in mediating cytotoxicity from disulfiram, cells were cultured with or without addition of the impermeate Cu^2+ chelator bathocuprioinedisulfonic acid (BCPS, 100 μM) added to medium to sequester Cu^2+ in the extracellular compartment. Cells were also treated 12 hours with various concentration of disulfiram (0.625 to 5.0 μM) and intracellular copper levels were measured as outlined below.
# Proliferation of cultured cells was quantitated using a previously reported calorimetric method based upon metabolic reduction of the soluble yellow tetrazolium dye 3-[4,5-dimethylthiazol]-2yl-2,5-diphenyl tetrazolium bromide (MTT) to its insoluble purple formazan by the action of mitochondrial succinyl dehydrogenase (See, e.g., S. J. Hirst, et al., “Quantifying proliferation of cultured human and rabbit airway smooth muscle in response to serum and platelet derived growth factor,” Am. J. Respir. Cell Mol. Biol. 7:574-581 (1992); R. Dashtaki, et al. R., supra; S. S. Brar, et al., “Requirement for reactive oxygen species in serum-induced and platelet-derived growth factor-induced growth of airway smooth muscle,” J. Biol. Chem. 274:20017-20026 (1999)). This assay empirically distinguishes between dead and living cells. For proliferation studies, cells were seeded into 24-well uncoated plastic plates (Costar) at 50,000 cells per well and cultured with respective media and mitogens.
# cyclin A = experiment: Immunoblot for cyclin A in M1619 cells; settings: CuSO4 1.6 μM alone; 24 hours
# Method: Cells were lysed and proteins were isolated and quantitated by immunoassay as previously detailed using 2 μg/ml of primary rabbit polyclonal antibodies against human bcl-2, p53, p21^WAF1/CiP1, cyclin A and cyclin B1, and peroxidase-labeled donkey polyclonal anti-rabbit IgG. Cells were placed on ice, washed twice with cold DPBS, scraped into 0.5 ml boiling buffer (10% [vol/vol] glycerol and 2% [wt/vol] sodium dodecyl sulfate [SDS] in 83 mM Tris, pH 6.8) and sheared by four passages through a pipette. Aliquots were removed for protein determination, using the BCA protein assay (Pierce). After 10% β-mercaptoethanol and 0.05% bromophenol blue were added, lysates were boiled for 5 min and stored at -80° C. until immunoblotting was performed. Proteins in defrosted samples were separated by SDS-polyacrylamide gel electrophoresis on 12% polyacrylamide gels (15 μg protein/lane) and electrotransferred to 0.45 μm Hybond ECL nitrocellulose membranes (Amersham Life Sciences) using the wet transblot method in transfer buffer (0.025 M Tris, 0.192 M glycine, 2.6 mM SDS, and 20%[vol/vol] methanol; pH 8.8) at 100 volts for 1 hour. Blots were blocked overnight at 4° C. with blocking buffer (PBS with 0.1% Tween 20) containing 5% fat-free milk powder (Carnation, Glendale, Calif.). After rinsing 5 times for 5 minutes each in PBS containing 0.1% Tween 20, blots were incubated for 1 hour at room temperature with 2.0 μg/ml of primary antibody. After rinsing again as above, blots were incubated for 1 hr at room temperature with horseradish peroxidase (HRP)-conjugated secondary antibody diluted 1:5,000 in blocking buffer. Immunoblots were rinsed again as above and detected via an enhanced chemiluminescence method (ECL Western blotting detection system, Amersham Life Science, Buckinghamshire, England). Autoradiographic film (X-OMAT AR, Eastman Kodak, Rochester, N.Y.) was exposed to immunoblots for 10, 30, or 60 seconds to obtain satisfactory images. Since disulfiram and copper disrupt transcription factor DNA binding to CRE, their effect on expression of cyclin A was studied. […]
# M1619 cells = experiment: Intracellular reactive oxygen species, dichlorofluorescin probe; settings: CuSO4 0.2-1.6 μM
# Method: Potential redox effects of disulfiram were studied in three sets of experiments. The importance of cellular glutathione (GSH) in mediating or modulating thiocarbamate toxicity was studied by measuring levels of intracellular GSH after treatment with disulfiram. […] Also, to assess whether a nonspecific antioxidant effect of disulfiram or PDTC might account for cellular growth inhibition, we studied the effect of the potent lipophilic antioxidant probucol (1.0 to 1,000 μM) on proliferation of malignant cell lines. […] A. Royall, et al., “Evaluation of 2′,7′-dichlorofluorescin and dihydrorhodamine 123 as fluorescent probes for intracellular H2O2 in cultured endothelial cells,” Archiv. Biochem. Biophys. 302:348-355 (1993)). […] Cells were plated in 24 well plastic plates at 50,000 cells per well and grown to confluence. Media was aspirated from wells and replaced with 100 μl medium containing 10 μM DCF-DA, and plates were incubated at 37° C. for 30 minutes. The DCF-DA containing media was aspirated, cells were washed twice with media alone and 100 μl fresh media was added to wells. […] The relative concentration of dichlorofluroescein was measured immediately by monitoring fluorescence at 37° C. using an excitation wavelength of 485 nm and emission wavelength of 535 nm.
compound,measurement,setting,value
"O=S(=O)([O-])[O-].[Cu+2] [CuSO4, cupric sulfate]","cell growth, copper alone",M1619 melanoma cells,do not by themselves affect cell growth
same,cyclin A expression,cyclin A,little effect
same,generation of reactive oxygen species (dichlorofluorescein fluorescence vs baseline),M1619 cells,not increased
